Where two headings read alike, the source gives them in different places.
Assays:
[1] = test system: mouse model of rheumatoid arthritis; settings: in vivo; cited from earlier work
[2] = test system: model of systemic lupus erythematosis; settings: in vivo; cited from earlier work
PI3Kδ = molecular target: T1, PI3Kδ (Homo sapiens, UniProt O00329); assay: In vitro enzyme assay, residual ATP bioluminescence; assay type: biochemical
T1 construct: Full length p110 subunits of PI3k α, β and δ; polyHis (N); made in house; host or cells: Sf9 insect cells (baculovirus)
T1 sequence (P27986 whole entry partner, one chain of several): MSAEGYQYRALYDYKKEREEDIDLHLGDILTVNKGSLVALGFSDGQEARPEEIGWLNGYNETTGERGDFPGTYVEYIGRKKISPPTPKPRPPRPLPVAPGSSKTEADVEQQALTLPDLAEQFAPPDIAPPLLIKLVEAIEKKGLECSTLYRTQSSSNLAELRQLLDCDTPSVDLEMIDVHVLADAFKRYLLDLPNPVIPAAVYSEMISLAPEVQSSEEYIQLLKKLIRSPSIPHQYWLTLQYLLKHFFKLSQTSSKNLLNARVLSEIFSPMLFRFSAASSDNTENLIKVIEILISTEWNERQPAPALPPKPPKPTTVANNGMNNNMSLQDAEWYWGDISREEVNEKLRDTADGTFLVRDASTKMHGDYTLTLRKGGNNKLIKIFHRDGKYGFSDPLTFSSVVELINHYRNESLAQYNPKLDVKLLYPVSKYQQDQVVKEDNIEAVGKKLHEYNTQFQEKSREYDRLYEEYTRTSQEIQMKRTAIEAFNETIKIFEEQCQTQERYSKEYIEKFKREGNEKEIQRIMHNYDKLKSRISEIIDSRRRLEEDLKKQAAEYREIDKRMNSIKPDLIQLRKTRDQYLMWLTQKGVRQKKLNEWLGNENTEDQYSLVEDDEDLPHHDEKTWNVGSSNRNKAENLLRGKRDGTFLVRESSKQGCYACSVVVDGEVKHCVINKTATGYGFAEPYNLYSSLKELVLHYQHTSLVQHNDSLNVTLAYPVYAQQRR
Method: Full length p110 subunits of PI3k α, β and δ, N-terminally labeled with polyHis tag, were coexpressed with p85 with Baculo virus expression vectors in sf9 insect cells. P110/p85 heterodimers were purified by sequential Ni-NTA, Q-HP, Superdex-100 chromatography. Purified α, β and δ isozymes were stored at −20° C. in 20 mM Tris, pH 8, 0.2M NaCl, 50% glycerol, 5 mM DTT, 2 mM Na cholate. Truncated PI3Kγ, residues 114-1102, N-terminally labeled with polyHis tag, was expessed with Baculo virus in Hi5 insect cells. The γ isozyme was purified by sequential Ni-NTA, Superdex-200, Q-HP chromatography. The γ isozyme was stored frozen at −80° C. in NaH2PO4, pH 8, 0.2M NaCl, 1% ethylene glycol, 2 mM β-mercaptoethanol.
Assays were performed in 25 μL with the above final concentrations of components in white polyproplyene plates (Costar 3355). Phospatidyl inositol phosphoacceptor, PtdIns(4,5)P2 P4508, was from Echelon Biosciences. The ATPase activity of the alpha and gamma isozymes was not greatly stimulated by PtdIns(4,5)P2 under these conditions and was therefore omitted from the assay of these isozymes. Test compounds were dissolved in dimethyl sulfoxide and diluted with three-fold serial dilutions. The compound in DMSO (1 μL) was added per test well, and the inhibition relative to reactions containing no compound, with and without enzyme was determined. After assay incubation at room temperature, the reaction was stopped and residual ATP determined by addition of an equal volume of a commercial ATP bioluminescence kit (Perkin Elmer EasyLite) according to the manufacturer's instructions, and detected using a AnalystGT luminometer.

[3] = test system: passive cutaneous anaphylaxis (PCA); settings: absence of functional delta (compound or p110δ D910A mice); cited from earlier work
[4] = test system: ovalbumin-induced airway inflammation; settings: cited from earlier work
protein kinases = settings: cited from earlier work
p110δ = molecular target: T2, p110δ (Homo sapiens, UniProt O00329); settings: cited from earlier work
T2 sequence (O00329 1-1044): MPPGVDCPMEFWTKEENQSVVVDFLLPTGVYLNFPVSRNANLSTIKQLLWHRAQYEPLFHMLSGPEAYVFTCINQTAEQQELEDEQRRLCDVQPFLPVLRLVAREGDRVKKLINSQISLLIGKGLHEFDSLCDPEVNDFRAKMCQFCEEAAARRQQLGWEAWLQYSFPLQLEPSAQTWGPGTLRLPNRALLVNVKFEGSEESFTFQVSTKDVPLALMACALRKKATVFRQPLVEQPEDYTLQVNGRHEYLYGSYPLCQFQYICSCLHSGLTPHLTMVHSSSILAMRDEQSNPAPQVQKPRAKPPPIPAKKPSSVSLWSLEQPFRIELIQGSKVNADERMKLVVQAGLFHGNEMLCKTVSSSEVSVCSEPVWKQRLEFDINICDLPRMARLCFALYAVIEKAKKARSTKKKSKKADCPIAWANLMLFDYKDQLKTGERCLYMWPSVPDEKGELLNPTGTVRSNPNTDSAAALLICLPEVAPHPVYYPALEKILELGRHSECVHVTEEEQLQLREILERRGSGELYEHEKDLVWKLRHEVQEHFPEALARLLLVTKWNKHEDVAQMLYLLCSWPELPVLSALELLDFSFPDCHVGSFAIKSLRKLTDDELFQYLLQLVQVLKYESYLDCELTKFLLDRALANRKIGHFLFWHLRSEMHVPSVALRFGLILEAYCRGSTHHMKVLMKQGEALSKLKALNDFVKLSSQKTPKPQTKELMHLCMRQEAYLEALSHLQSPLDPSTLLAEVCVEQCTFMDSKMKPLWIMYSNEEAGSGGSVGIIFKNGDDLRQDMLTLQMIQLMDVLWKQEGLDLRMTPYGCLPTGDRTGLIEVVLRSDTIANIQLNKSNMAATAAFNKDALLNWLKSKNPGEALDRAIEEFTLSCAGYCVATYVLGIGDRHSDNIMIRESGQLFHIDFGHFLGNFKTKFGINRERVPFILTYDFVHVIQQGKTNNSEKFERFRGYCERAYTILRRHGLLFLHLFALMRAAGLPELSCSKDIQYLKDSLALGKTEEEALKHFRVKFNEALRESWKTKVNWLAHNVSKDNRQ

**Q.** With `O=C1NC(=O)/C(=C\c2ccc3nccnc3c2)S1` [AS 605240] as the compound, how does the “efficacy in a mouse model of rheumatoid arthritis” value [1] read?
**A.** efficacious

**Q.** What about the “onset of disease in a model of systemic lupus erythematosis” value [2] of the same compound?
**A.** delay onset of disease

**Q.** With `Cc1cccc2cc(CNc3nc(N)ncc3Cl)c(-c3ccccc3Cl)nc12` [Example 1, 5-Chloro-N4-((2-(2-chlorophenyl)-8-methylquinolin-3-yl)methyl)pyrimidine-2,4-diamine] as the compound, how does the IC50 (PI3Kδ; read-out: PI3Kδ IC50) read?
**A.** 165 nM

**Q.** Which “passive cutaneous anaphylaxis (PCA)” value [3] does the source give for `Cc1ccccc1-n1c(Cn2cnc3c(N)ncnc32)nc2cccc(C)c2c1=O` [IC87114] here?
**A.** significantly reduced

**Q.** What about the “inflammation and disease in a murine model of asthma” value [4] of the same compound?
**A.** significantly ameliorate inflammation and disease

**Q.** What about the “activity against any protein kinases tested” value (protein kinases) of the same compound?
**A.** no activity

**Q.** What about the “inhibition of p110δ” value (p110δ) of the same compound?
**A.** high nanomolar range (triple digit)

**Q.** For `Nc1cc(NCc2cc3cccc(Cl)c3nc2-c2ccccc2Cl)ncn1` [Example 2, N4-((8-Chloro-2-(2-chlorophenyl)quinolin-3-yl)-methyl)pyrimidine-4,6-diamine], which IC50 (PI3Kδ; read-out: PI3Kδ IC50) is on record?
**A.** 6870 nM

**Q.** For `Cc1cccc2cc(CNc3ncc(C(F)(F)F)c(N)n3)c(-c3ccccc3Cl)nc12` [Example 4, N2-((2-(2-chlorophenyl)-8-methylquinolin-3-yl)methyl)-5-(trifluoromethyl)pyrimidine-2,4-diamine], which IC50 (PI3Kδ; read-out: PI3Kδ IC50) is on record?
**A.** 2820 nM

**Q.** With `Cc1cccc2cc(CNc3nc(N)ncc3C(F)(F)F)c(-c3ccccc3Cl)nc12` [Example 3, N4-((2-(2-chlorophenyl)-8-methylquinolin-3-yl)methyl)-5-(trifluoromethyl)pyrimidine-2,4-diamine] as the compound, how does the IC50 (PI3Kδ; read-out: PI3Kδ IC50) read?
**A.** 127 nM

**Q.** With `NC(=O)c1cc(NS(=O)(=O)c2cc3cccc(Cl)c3nc2-c2ccccc2Cl)ccn1` [Example 7, 4-(8-chloro-2-(2-chlorophenyl)quinoline-3-sulfonamido)picolinamide] as the compound, how does the IC50 (PI3Kδ; table after the in vitro enzyme assays, isoform and unit inferred, read-out: IC50) read?
**A.** > 40000 nM

Reference: US8183258B2, “Heterocyclic compounds and their uses” (Amgen Inc., priority 2007, dated 2012)
